Reference: paper PMC10734772 (Turkish Journal of Chemistry, 2021)

Assays:
Type in all cases: cell-based
[1] = test system: K562, Nalm-6, Molt-4, Reh, Jurkat, Hek293T cell lines; test: MTT assay, overall judgement over all cell lines; conditions: overall judgement in words; for 6 and 10: on all cell lines, except Reh
Description: To evaluate in-vitro anti-cancer activity of the newly synthesized compounds, they were tested by using the MTT assay in the BCR-ABL positive leukemic cell line (K562), BCR-ABL negative leukemic cell lines (Nalm-6, Molt-4, Reh and Jurkat), and non-leukemic human embryonic kidney tissue (Hek293T) cell line. […] The viability rate of each concentration was calculated by the formula stated in material and methods, the viability rate results for each cell were presented in Table S2 and Figure S44.

[2] = test system: K562; test: MTT assay, K562 cells; conditions: Homo sapiens, 24 h, MTT, read-out: Viability rate
[3] = test system: Jurkat; test: MTT assay, Jurkat cells; conditions: Homo sapiens, 24 h, read-out: Viability rate
[4] = test system: Molt-4; test: MTT assay, Molt-4 cells; conditions: Homo sapiens, MOLT-4, 24 h, read-out: Viability rate
[5] = test system: Nalm-6; test: MTT assay, Nalm-6 cells; conditions: Homo sapiens, 24 h, MTT, read-out: Viability rate
Description: K562, Jurkat and Molt-4 cell lines were seeded as 4x10^5/ml, Reh and Nalm-6 cell lines were seeded 5x10^5/ml, Hek293T cell line was seed as 2x10^5/ml.
MTT assay is a 3-day test. On the first day, cell count was performed in Bio Rad TC-20 device with the help of trypan blue, each cell line was prepared by diluting to the specified concentrations and seeded in a 96-well plate as 100μL to each well and incubated for 1 day.
On the second day, stock solutions were subsequently diluted to various concentrations (0.3–200 μM) with related medium prior to experiments. Specified concentrations of the compounds were seeded in a 96-well plate as 100μL to each well and incubated for 24 h.
After incubation (on the third day), to precipitate leukemia cells, the cell plate was centrifuged at 1500 rpm for 5 min. […] The 50 μl of supernatant was discarded from each well and 100 μl of DMSO was added to dissolve the formazan. Plates were shaken for 45 min to dissolve the dye. Then the optical density of each well was measured by using Thermo VarioSkan Flush Multimode Reader Quantum ST5-1100 at 570 nm wavelength.
Subsequently, viability rate of the cells at each concentration, as percentage, was determined by following formula (1):
Viability rate (%)=100-[(OD(control)-OD(sample))/OD(control)×100].OD=Optical Density
The IC50 values were calculated by using GraphPad Prism. All the data presented as the mean of 6 replicates. […] Statistical analysis was performed using dose-response inhibition, log(inhibitor) vs response-variable slope, least squares (ordinary) fit.

[6] = MTT assay, Hek293T non-leukemic control cells; conditions: human, read-out: Viability rate
[7] = test system: Reh; test: MTT assay, Reh cells; conditions: Homo sapiens, 24 h, read-out: Viability rate

Compound: Cc1ccc(NC(=O)c2ccc(CN3CCN(c4ncccn4)CC3)cc2)cc1Nc1cnccn1 [Compound 7, N-(4-Methyl-3-(pyrazin-2-ylamino)phenyl)-4-((4-(pyrimidin-2-yl)piperazin-1-yl)methyl)benzamide]
- anticancer activity according to MTT assay results [1]: very poor activity
- viability at 0.3 µM ([2]; K562, 0.3 μM): 84.6 ± 0.15%
- viability at 0.5 µM ([2]; K562, 0.5 μM): 84.5 ± 0.08%
- viability at 1 µM ([2]; K562, 1 μM): 84.4 ± 0.08%
- viability at 3 µM ([2]; K562, 3 μM): 84.5 ± 0.1%
- viability at 5 µM ([2]; K562, 5 μM): 82.9 ± 0.12%
- viability at 10 µM ([2]; K562, 10 μM): 81.6 ± 0.05%
- viability at 15 µM ([2]; K562, 15 μM): 80.1 ± 0.06%
- viability at 20 µM ([2]; K562, 20 μM): 64 ± 0.07%
- viability at 30 µM ([2]; K562, 30 μM): 63.9 ± 0.04%
- viability at 50 µM ([2]; K562, 50 μM): 62.9 ± 0.06%
- viability at 70 µM ([2]; K562, 70 μM): 62.3 ± 0.07%
- viability at 100 µM ([2]; K562, 100 μM): 62.2 ± 0.05%
- viability at 150 µM ([2]; K562, 150 μM): 61.6 ± 0.05%
- viability at 200 µM ([2]; K562, 200 μM): 59.5 ± 0.07%
- viability at 0.3 µM ([3]; 0.3 μM): 77.4 ± 0.09%
- viability at 0.5 µM ([3]; 0.5 μM): 77.3 ± 0.07%
- viability at 1 µM ([3]; 1 μM): 75.7 ± 0.03%
- viability at 3 µM ([3]; 3 μM): 75.5 ± 0.05%
- viability at 5 µM ([3]; 5 μM): 75.6 ± 0.03%
- viability at 10 µM ([3]; 10 μM): 74.6 ± 0.06%
- viability at 15 µM ([3]; 15 μM): 74.2 ± 0.05%
- viability at 20 µM ([3]; 20 μM): 74 ± 0.06%
- viability at 30 µM ([3]; 30 μM): 73.2 ± 0.07%
- viability at 50 µM ([3]; 50 μM): 72.8 ± 0.03%
- viability at 70 µM ([3]; 70 μM): 72.8 ± 0.03%
- viability at 100 µM ([3]; 100 μM): 72.7 ± 0.04%
- viability at 150 µM ([3]; 150 μM): 72.4 ± 0.09%
- viability at 200 µM ([3]; 200 μM): 72.1 ± 0.06%
- viability at 0.3 µM ([4]; Molt-4, 0.3 μM): 93.3 ± 0.16%
- viability at 0.5 µM ([4]; Molt-4, 0.5 μM): 93.8 ± 0.08%
- viability at 1 µM ([4]; Molt-4, 1 μM): 89.8 ± 0.07%
- viability at 3 µM ([4]; Molt-4, 3 μM): 89.6 ± 0.12%
- viability at 5 µM ([4]; Molt-4, 5 μM): 89.7 ± 0.08%
- viability at 10 µM ([4]; Molt-4, 10 μM): 89.5 ± 0.06%
- viability at 15 µM ([4]; Molt-4, 15 μM): 90.3 ± 0.04%
- viability at 20 µM ([4]; Molt-4, 20 μM): 90.2 ± 0.06%
- viability at 30 µM ([4]; Molt-4, 30 μM): 90.9 ± 0.06%
- viability at 50 µM ([4]; Molt-4, 50 μM): 92.2 ± 0.05%
- viability at 70 µM ([4]; Molt-4, 70 μM): 90.6 ± 0.06%
- viability at 100 µM ([4]; Molt-4, 100 μM): 85.5 ± 0.06%
- viability at 150 µM ([4]; Molt-4, 150 μM): 90.4 ± 0.04%
- viability at 200 µM ([4]; Molt-4, 200 μM): 89.8 ± 0.07%
- viability at 0.3 µM ([5]; Nalm-6, 0.3 μM): 97.9 ± 0.06%
- viability at 0.5 µM ([5]; Nalm-6, 0.5 μM): 95.1 ± 0.03%
- viability at 1 µM ([5]; Nalm-6, 1 μM): 95.1 ± 0.03%
- viability at 3 µM ([5]; Nalm-6, 3 μM): 96 ± 0.03%
- viability at 5 µM ([5]; Nalm-6, 5 μM): 95.6 ± 0.02%
- viability at 10 µM ([5]; Nalm-6, 10 μM): 95.1 ± 0.02%
- viability at 15 µM ([5]; Nalm-6, 15 μM): 95.9 ± 0.03%
- viability at 20 µM ([5]; Nalm-6, 20 μM): 96.4 ± 0.03%
- viability at 30 µM ([5]; Nalm-6, 30 μM): 96.5 ± 0.05%
- viability at 50 µM ([5]; Nalm-6, 50 μM): 72.3 ± 0.02%
- viability at 70 µM ([5]; Nalm-6, 70 μM): 71.8 ± 0.02%
- viability at 100 µM ([5]; Nalm-6, 100 μM): 71.3 ± 0.02%
- viability at 150 µM ([5]; Nalm-6, 150 μM): 70.2 ± 0.01%
- viability at 200 µM ([5]; Nalm-6, 200 μM): 59.7 ± 0.02%
- viability at 24 h, 0.3 µM ([6]; Hek293T cells (non-leukemic control cell line), 0.3 μM): 87.7 ± 0.06%
- viability at 24 h, 0.5 µM ([6]; Hek293T cells (non-leukemic control cell line), 0.5 μM): 87.6 ± 0.07%
- viability at 24 h, 3 µM ([6]; Hek293T cells (non-leukemic control cell line), 3 μM): 84.6 ± 0.05%
- viability at 24 h, 5 µM ([6]; Hek293T cells (non-leukemic control cell line), 5 μM): 81 ± 0.09%
- viability at 24 h, 10 µM ([6]; Hek293T cells (non-leukemic control cell line), 10 μM): 80.5 ± 0.06%
- viability at 24 h, 15 µM ([6]; Hek293T cells (non-leukemic control cell line), 15 μM): 80.3 ± 0.04%
- viability at 24 h, 20 µM ([6]; Hek293T cells (non-leukemic control cell line), 20 μM): 76 ± 0.03%
- viability at 24 h, 30 µM ([6]; Hek293T cells (non-leukemic control cell line), 30 μM): 72.1 ± 0.02%
- viability at 24 h, 50 µM ([6]; Hek293T cells (non-leukemic control cell line), 50 μM): 64.5 ± 0.02%
- viability at 24 h, 70 µM ([6]; Hek293T cells (non-leukemic control cell line), 70 μM): 64.2 ± 0.02%
- viability at 24 h, 100 µM ([6]; Hek293T cells (non-leukemic control cell line), 100 μM): 63.5 ± 0.07%
- viability at 24 h, 150 µM ([6]; Hek293T cells (non-leukemic control cell line), 150 μM): 60.8 ± 0.03%
- viability at 24 h, 200 µM ([6]; Hek293T cells (non-leukemic control cell line), 200 μM): 55.1 ± 0.02%
- viability at 24 h, 1 µM ([6]; Hek293T cells, 1 μM): 87 ± 0.08%
- viability at 0.3 µM ([7]; 0.3 μM): 110 ± 0.02%
- viability at 0.5 µM ([7]; 0.5 μM): 109.8 ± 0.02%
- viability at 1 µM ([7]; 1 μM): 108.7 ± 0.02%
- viability at 3 µM ([7]; 3 μM): 103.4 ± 0.02%
- viability at 5 µM ([7]; 5 μM): 108.8 ± 0.02%
- viability at 10 µM ([7]; 10 μM): 106.5 ± 0.05%
- viability at 15 µM ([7]; 15 μM): 100.2 ± 0.02%
- viability at 20 µM ([7]; 20 μM): 95.5 ± 0.06%
- viability at 30 µM ([7]; 30 μM): 85.4 ± 0.02%
- viability at 50 µM ([7]; 50 μM): 66.7 ± 0.02%
- viability at 70 µM ([7]; 70 μM): 66.2 ± 0.03%
- viability at 100 µM ([7]; 100 μM): 67.7 ± 0.03%
- viability at 150 µM ([7]; 150 μM): 66.8 ± 0.02%
- viability at 200 µM ([7]; 200 μM): 62.8 ± 0.02%
